Literature values as cited in patent publication US9661851B1, “Synergistic herbicidal composition and use thereof” (ROTAM AGROCHEM INTERNATIONAL COMPANY LIMITED, priority 2015, dated 2017).

Settings: hydrolysis in water, storage with moisture, in formulations; stated with reference to U.S. Ser. No. 14/957,768

stability | Structure (SMILES)
highly unstable | COC(=O)c1ccc(CNS(C)(=O)=O)c(S(=O)(=O)NC(=O)Nc2nc(OC)cc(OC)n2)c1 [mesosulfuron-methyl in the amorphous state] [methyl 2-[(4,6-dimethoxypyrimidin-2-ylcarbamoyl)sulfamoyl]-α-(methanesulfonamido)-p-toluate]
improved stability | COC(=O)c1ccc(CNS(C)(=O)=O)c(S(=O)(=O)NC(=O)Nc2nc(OC)cc(OC)n2)c1 [crystalline modification I of mesosulfuron-methyl] [methyl 2-[(4,6-dimethoxypyrimidin-2-ylcarbamoyl)sulfamoyl]-α-(methanesulfonamido)-p-toluate]
